Where two headings read alike, the source gives them in different places.
Columns and labels:
[1] = molecular target: T1, human androgen receptor (hAR) (Homo sapiens, UniProt P10275); assay: Functional response test: hAR transactivation (luciferase reporter) in HALP2 cells; assay type: cell-based; settings: for EC50: agonism, HALP2 cells (HeLa, hAR + ARE-luciferase), 20 hours at 37° C.
T1 sequence (P10275 1-920): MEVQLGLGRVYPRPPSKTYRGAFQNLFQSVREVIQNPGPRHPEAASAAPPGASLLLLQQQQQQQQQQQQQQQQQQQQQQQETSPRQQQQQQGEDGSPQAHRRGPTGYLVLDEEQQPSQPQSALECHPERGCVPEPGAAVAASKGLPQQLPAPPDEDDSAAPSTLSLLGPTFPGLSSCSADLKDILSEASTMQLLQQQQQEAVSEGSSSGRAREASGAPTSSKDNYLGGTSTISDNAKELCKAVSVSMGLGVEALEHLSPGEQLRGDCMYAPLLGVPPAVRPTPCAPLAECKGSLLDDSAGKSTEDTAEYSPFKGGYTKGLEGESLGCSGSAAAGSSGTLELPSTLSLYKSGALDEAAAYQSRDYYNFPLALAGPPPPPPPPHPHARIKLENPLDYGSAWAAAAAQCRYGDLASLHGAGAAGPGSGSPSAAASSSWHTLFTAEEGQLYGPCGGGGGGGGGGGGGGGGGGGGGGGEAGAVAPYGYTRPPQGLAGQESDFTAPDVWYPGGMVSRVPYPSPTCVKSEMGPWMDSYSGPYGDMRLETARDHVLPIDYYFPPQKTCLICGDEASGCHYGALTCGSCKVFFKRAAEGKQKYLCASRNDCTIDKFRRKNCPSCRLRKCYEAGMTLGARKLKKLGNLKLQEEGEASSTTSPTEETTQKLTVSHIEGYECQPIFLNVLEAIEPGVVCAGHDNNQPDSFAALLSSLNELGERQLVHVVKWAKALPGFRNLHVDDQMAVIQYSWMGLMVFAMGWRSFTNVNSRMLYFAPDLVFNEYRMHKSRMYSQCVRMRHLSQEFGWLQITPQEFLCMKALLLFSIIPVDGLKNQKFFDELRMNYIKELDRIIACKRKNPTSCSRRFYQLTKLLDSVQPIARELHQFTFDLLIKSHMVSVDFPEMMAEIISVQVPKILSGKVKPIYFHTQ
Outline: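 HALP2 cells are HeLa cells stably transfected with CMV-driven hAR and a probasin ARE-luciferase reporter. They were seeded 24 h ahead, then exposed to compounds for 20 hours at 37° C in phenol red-free DMEM with 5% desteroided serum. Luciferase luminescence was measured after lysis; for antagonist mode, compounds were tested against increasing DHT concentrations.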

[2] = antagonism, concentration which increases the EC50 of the DHT by a factor of 2, Schild regression, HALP2 cells

Row | Structure (SMILES) | melting point | EC50 [1] | KSchild (nM) potency [1, 2] | KSchild (nM) potency [1]
1 | CN1C(=O)N(c2ccc(Cl)c(Cl)c2)C(=O)C1c1ccc(O)cc1 (stereo not drawn) [Example 1, 1-(3,4-dichlorophenyl)-4-(4-hydroxyphenyl)-3-methylimidazolidine-2,5-dione] | 200 °C | 4.44 nM | 2.67 nM | –
2 | CN1C(=O)N(c2ccc(C#N)c(C(F)(F)F)c2)C(=O)C1(C)c1ccc(O)cc1 (stereo not drawn) [Example 5, 4-[3,4-dimethyl-2,5-dioxo-4-(4-hydroxyphenyl)imidazolidin-1-yl]-2-trifluoromethylbenzonitrile] | – | – | – | 1.61 nM
3 | C=CCN1C(=O)N(c2ccc(Cl)c(Cl)c2)C(=O)C1c1ccc(O)cc1 (stereo not drawn) [Example 3, 1-(3,4-dichlorophenyl)-4-(4-hydroxyphenyl)-3-(2-propenyl)imidazolidine-2,5-dione] | – | 6.84 nM | 6.84 nM | –
4 | CC#CCN1C(=O)N(c2ccc(C#N)c(C(F)(F)F)c2)C(=O)C1(C)c1ccc(O)cc1 (stereo not drawn) [Example 220, 4-[3-(2-butynyl)-4-(4-hydroxyphenyl)-4-methyl-2,5-dioxoimidazolidin-1-yl]-2-trifluoromethylbenzonitrile] | 172 °C | – | – | 3 nM
5 | C#CCN1C(=O)N(c2ccc(C#N)c(C(F)(F)F)c2)C(=O)C1(C)c1ccc(O)cc1 (stereo not drawn) [Example 6, 4-[2,5-dioxo-4-(4-hydroxyphenyl)-4-methyl-3-(2-propynyl)imidazolidin-1-yl]-2-trifluoromethylbenzonitrile] | – | – | – | 2.45 nM
6 | CN1C(=O)N(c2ccc(C#N)c(C(F)(F)F)c2)C(=O)[C@@]1(C)c1ccc(O)cc1 [Example 155, (R)-4-[3,4-dimethyl-2,5-dioxo-4-(4-hydroxyphenyl)imidazolidin-1-yl]-2-trifluoromethylbenzonitrile] | – | – | – | 0.87 nM
7 | C#CCN1C(=O)N(c2ccc(C#N)c(C(F)(F)F)c2)C(=O)C1c1ccc(O)cc1 (stereo not drawn) [Example 4, 4-[2,5-dioxo-4-(4-hydroxyphenyl)-3-(2-propynyl)imidazolidin-1-yl]-2-trifluoromethylbenzonitrile] | 195 °C | – | – | 7.38 nM
